Test results taken from patent US7973162B2, “Modulators of muscarinic receptors” (Vertex Pharmaceuticals Incorporated, priority 2007, dated 2011).

Each molecule was assayed against T1, M2 muscarinic receptor (Homo sapiens, UniProt P08172) (assay: Functional mobilization of intracellular calcium (FLIPR), M2-CHO cells). Conditions: 100% efficacy = maximum response obtained with the Carbachol control.
T1 construct: expressed in transfected cells; host or cells: CHO (M2-CHO)
T1 sequence (P08172 1-466): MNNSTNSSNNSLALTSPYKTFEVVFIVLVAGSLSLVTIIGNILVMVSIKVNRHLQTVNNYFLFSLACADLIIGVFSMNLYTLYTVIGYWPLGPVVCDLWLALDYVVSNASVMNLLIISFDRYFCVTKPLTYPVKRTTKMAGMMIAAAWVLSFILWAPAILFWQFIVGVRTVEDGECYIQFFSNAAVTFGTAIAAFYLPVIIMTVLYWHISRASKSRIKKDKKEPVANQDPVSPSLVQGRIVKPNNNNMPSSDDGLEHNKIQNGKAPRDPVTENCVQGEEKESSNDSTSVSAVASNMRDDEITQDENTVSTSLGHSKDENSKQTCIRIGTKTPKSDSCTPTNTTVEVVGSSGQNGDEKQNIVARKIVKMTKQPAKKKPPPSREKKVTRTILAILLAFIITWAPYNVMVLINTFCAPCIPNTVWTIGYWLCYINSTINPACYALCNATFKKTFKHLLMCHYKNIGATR
Assay type: cell-based
Experimental: (§1) Functional Mobilization of Intracellular Calcium to Determine Muscarinic Receptor Activity:
(§2) CHO cells expressing muscarinic receptors (M1 to M5) are grown as monolayers in tissue culture flasks at 37° C. in a humidified atmosphere containing 5% CO2 and passaged every 3-5 days. The growth media is Dulbecco's modified eagles medium (DMEM, Gibco Cat# 12430-054), containing 25 mM Hepes and supplemented with Fetal Bovine Serum (Hyclone, cat #SH30071.03), 0.1 mM of MEM non-essential amino acids (GIBCO, Cat #11140-050), 1 mM MEM Sodium Pyruvate (GIBCO Cat #11360-070) and 100 units/ml of Penicillin G and 100 μg/ml of Streptomycin (GIBCO Cat #15140-122). The recombinant muscarinic receptor cell lines are grown under antibiotic pressure with media containing 25 μg/ml zeocin and 500 μg/ml G418 (M1-CHO), 4 μg/ml puromycin, 50 μg/ml zeocin and 2.5 μg/ml blasticidin (M2 and M4-CHO) or 50 μg/ml zeocin and 4 μg/ml puromycin (M3 and M5-CHO).
(§3) Cells are harvested at 80-90% confluence using Versene (GIBCO Cat #15040-066), collected by centrifugation and seeded 18-24 hrs prior to running the calcium assay at a density of 5,000-10,000 cells/well in […], clear-bottomed 384-well plates (BD Biocoat, poly-D-lysine, Cat#356663). The day of the experiment, the cells are washed with a plate washer (Bioteck Instruments, ELX 405) using bath1 buffer (140-mM NaCl, 4.5-mM KCl, 2-mM CaCl2, 1-mM MgCl2, 10-mM Hepes-Na, 10-mM Glucose, pH 7.4, with NaOH) containing 1 mM Probenecid. Next, the calcium dye Fluo-3 (25 μl/well of Fluo-3 AM at 4 μM, Molecular Probes F-1241, in Bath 1 buffer containing 1 mM Probenecid) is added to the 25 μl of Bath 1 remaining in each well after the plate wash and the dye is loaded at 37° C. in the tissue culture incubator for 60-90 min. The fluorescent dye is removed using the plate washer with Bath 1 containing 1 mM Probenecid, leaving 25 μl/well of this solution after the wash. Alternatively, cells can be loaded with the calcium indicator from Molecular Devices (Calcium 3 Assay Reagents, Cat #R7181) adding 5 μl of a 5× solution dye in Bath 1 containing 1 mM Probenecid (10 ml per dye flask cat #R7182 to generate a solution 20×) to 20 μl of the same buffer. After loading for 60 min, the experiment can be run without having to remove the dye.
(§4) Compounds are prepared at a 2× fold concentration in a 96-well plate (round bottom, Costar Corning cat #3656), by reconstituting the pre-spotted compounds in bath 1 containing 1 mM probenecid. The final concentration DMSO is 0.5%, and the amount of DMSO is normalized across the assay plate. To determine an agonist action of the compounds on muscarinic receptors, the reconstituted compounds are added (25 μl compound/well) to the cell assay plate (containing 25 μl/well) using the multi-channel robotic system of the FLIPR 3 Instrument (Molecular Devices, Sunnyvale, Calif.). To determine a functional inhibitory action of the compounds on muscarinic receptors, the reconstituted compounds are added (25 μl compound/well) to the assay plate and pre-incubated for 15 min prior to adding 25 μl of Carbachol at 3× the EC80 for each muscarinic subtype. Alternatively, the compounds can be co-applied simultaneously with the agonist. In both assay modes, the fluorescence is recorded for 60 sec (excitation wavelength is […] and emission wavelength 540 nm) using the FLIPR 3 instrument.
(§5) The potency, efficacy and selectivity of the muscarinic compounds were evaluated by screening the compound activity across the whole family (M1 to M5 cells). Compounds were also screened for activity on other proteins such as other GPCRs and ion channels to determine selectivity on M4 receptors.
(§6) Examples of activities and efficacies of the muscarinic compounds of formulae (I, Ia, and Ib) on modulating M1 and M4 receptors are shown below in Table 3. […]

| SMILES | Emax [%] |
| --- | --- |
| COCCN1C(=O)C[C@@H]2CC3(CCN(CC4CCCCC4)CC3)c3ccccc3[C@@H]21 [Compound 22] | < 25 |
| CN1C(=O)C[C@@H]2CC3(CCN(C4CCCCC4)CC3)c3ccccc3[C@@H]21 [Compound 23] | 25 to 100 |
| CCOC(=O)N1CCC(N2CCC3(CC2)C[C@H]2CC(=O)N(CC(=O)O)[C@H]2c2ccccc23)CC1 [Compound 13] | < 25 |

Same assay, conditions: CHO cells expressing M2, calcium mobilization

| SMILES | EC50 [µM] |
| --- | --- |
| COCCN1C(=O)C[C@@H]2CC3(CCN(CC4CCCCC4)CC3)c3ccccc3[C@@H]21 [Compound 22] | > 5 |
| CN1C(=O)C[C@@H]2CC3(CCN(C4CCCCC4)CC3)c3ccccc3[C@@H]21 [Compound 23] | < 2 |
| CCOC(=O)N1CCC(N2CCC3(CC2)C[C@H]2CC(=O)N(CC(=O)O)[C@H]2c2ccccc23)CC1 [Compound 13] | > 5 |

The molecules below were run against T2, M3 muscarinic receptor (Homo sapiens, UniProt P20309) (assay: Functional mobilization of intracellular calcium (FLIPR), M3-CHO cells). Conditions: 100% efficacy = maximum response obtained with the Carbachol control.
T2 construct: expressed in transfected cells; host or cells: CHO (M3-CHO)
T2 sequence (P20309 whole entry): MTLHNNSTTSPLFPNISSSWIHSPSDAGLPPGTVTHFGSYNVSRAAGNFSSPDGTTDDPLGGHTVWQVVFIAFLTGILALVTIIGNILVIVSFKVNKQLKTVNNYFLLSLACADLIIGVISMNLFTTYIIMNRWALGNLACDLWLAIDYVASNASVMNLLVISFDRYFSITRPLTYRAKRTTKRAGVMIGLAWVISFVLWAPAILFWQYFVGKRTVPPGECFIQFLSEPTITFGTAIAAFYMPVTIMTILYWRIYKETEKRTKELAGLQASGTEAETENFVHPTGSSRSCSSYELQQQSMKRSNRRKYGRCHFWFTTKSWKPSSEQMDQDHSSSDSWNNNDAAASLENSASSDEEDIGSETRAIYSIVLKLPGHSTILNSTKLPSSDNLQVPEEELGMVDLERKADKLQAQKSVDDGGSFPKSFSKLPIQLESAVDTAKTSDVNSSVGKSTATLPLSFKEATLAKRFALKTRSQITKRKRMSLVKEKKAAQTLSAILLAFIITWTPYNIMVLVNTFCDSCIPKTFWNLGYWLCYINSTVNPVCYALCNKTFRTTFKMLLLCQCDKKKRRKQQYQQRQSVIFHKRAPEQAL
Assay type: cell-based
Experimental: as §1, §2, §3, §4, §5, §6

| SMILES | Emax [%] |
| --- | --- |
| COCCN1C(=O)C[C@@H]2CC3(CCN(CC4CCCCC4)CC3)c3ccccc3[C@@H]21 [Compound 22] | < 25 |
| CN1C(=O)C[C@@H]2CC3(CCN(C4CCCCC4)CC3)c3ccccc3[C@@H]21 [Compound 23] | < 25 |
| CCOC(=O)N1CCC(N2CCC3(CC2)C[C@H]2CC(=O)N(CC(=O)O)[C@H]2c2ccccc23)CC1 [Compound 13] | < 25 |

Same assay, conditions: CHO cells expressing M3, calcium mobilization

| SMILES | EC50 [µM] |
| --- | --- |
| COCCN1C(=O)C[C@@H]2CC3(CCN(CC4CCCCC4)CC3)c3ccccc3[C@@H]21 [Compound 22] | > 5 |
| CN1C(=O)C[C@@H]2CC3(CCN(C4CCCCC4)CC3)c3ccccc3[C@@H]21 [Compound 23] | > 5 |
| CCOC(=O)N1CCC(N2CCC3(CC2)C[C@H]2CC(=O)N(CC(=O)O)[C@H]2c2ccccc23)CC1 [Compound 13] | > 5 |

What follows are molecules tested against T3, M4 muscarinic receptor (Homo sapiens, UniProt P08173) (assay: Functional mobilization of intracellular calcium (FLIPR), M4-CHO cells). Conditions: 100% efficacy = maximum response obtained with the Carbachol control.
T3 construct: expressed in transfected cells; host or cells: CHO (M4-CHO)
T3 sequence (P08173 1-479): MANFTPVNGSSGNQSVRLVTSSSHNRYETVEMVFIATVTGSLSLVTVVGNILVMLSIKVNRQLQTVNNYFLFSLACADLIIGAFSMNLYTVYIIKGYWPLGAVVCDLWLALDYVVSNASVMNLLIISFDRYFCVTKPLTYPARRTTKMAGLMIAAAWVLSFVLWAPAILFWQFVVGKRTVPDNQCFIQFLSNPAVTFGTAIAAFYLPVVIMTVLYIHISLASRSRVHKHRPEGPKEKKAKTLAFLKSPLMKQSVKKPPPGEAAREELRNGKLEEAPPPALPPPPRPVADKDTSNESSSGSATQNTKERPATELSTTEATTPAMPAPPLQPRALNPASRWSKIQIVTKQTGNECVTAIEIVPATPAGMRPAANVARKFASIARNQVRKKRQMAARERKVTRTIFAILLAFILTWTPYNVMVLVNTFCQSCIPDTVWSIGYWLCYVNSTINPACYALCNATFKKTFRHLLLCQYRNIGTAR
Assay type: cell-based
Experimental: as §1, §2, §3, §4, §5, §6

| SMILES | Emax [%] |
| --- | --- |
| COCCN1C(=O)C[C@@H]2CC3(CCN(CC4CCCCC4)CC3)c3ccccc3[C@@H]21 [Compound 22] | 25 to 100 |
| CN1C(=O)C[C@@H]2CC3(CCN(C4CCCCC4)CC3)c3ccccc3[C@@H]21 [Compound 23] | 25 to 100 |
| CCOC(=O)N1CCC(N2CCC3(CC2)C[C@H]2CC(=O)N(CC(=O)O)[C@H]2c2ccccc23)CC1 [Compound 13] | 25 to 100 |

Same assay, conditions: CHO cells expressing M4, calcium mobilization

| SMILES | EC50 [µM] |
| --- | --- |
| COCCN1C(=O)C[C@@H]2CC3(CCN(CC4CCCCC4)CC3)c3ccccc3[C@@H]21 [Compound 22] | < 2 |
| CN1C(=O)C[C@@H]2CC3(CCN(C4CCCCC4)CC3)c3ccccc3[C@@H]21 [Compound 23] | < 2 |
| CCOC(=O)N1CCC(N2CCC3(CC2)C[C@H]2CC(=O)N(CC(=O)O)[C@H]2c2ccccc23)CC1 [Compound 13] | > 5 |

Each molecule was assayed against T4, M1 muscarinic receptor (Homo sapiens, UniProt P11229) (assay: Functional mobilization of intracellular calcium (FLIPR), M1-CHO cells). Conditions: 100% efficacy = maximum response obtained with the Carbachol control.
T4 construct: expressed in transfected cells; host or cells: CHO (M1-CHO)
T4 sequence (P11229 1-460): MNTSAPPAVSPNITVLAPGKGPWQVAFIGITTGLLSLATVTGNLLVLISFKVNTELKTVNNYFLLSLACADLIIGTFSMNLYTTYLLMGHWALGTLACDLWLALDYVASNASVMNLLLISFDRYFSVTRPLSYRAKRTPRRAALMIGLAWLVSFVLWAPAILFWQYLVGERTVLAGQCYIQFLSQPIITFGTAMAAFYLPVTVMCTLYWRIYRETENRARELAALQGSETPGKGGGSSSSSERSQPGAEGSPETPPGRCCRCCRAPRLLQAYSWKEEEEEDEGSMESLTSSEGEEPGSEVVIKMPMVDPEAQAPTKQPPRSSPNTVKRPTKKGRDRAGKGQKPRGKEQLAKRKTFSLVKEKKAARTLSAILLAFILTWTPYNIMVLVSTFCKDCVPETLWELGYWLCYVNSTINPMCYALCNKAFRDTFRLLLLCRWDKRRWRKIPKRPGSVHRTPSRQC
Assay type: cell-based
Experimental: as §1, §2, §3, §4, §5, §6

| SMILES | Emax [%] |
| --- | --- |
| COCCN1C(=O)C[C@@H]2CC3(CCN(CC4CCCCC4)CC3)c3ccccc3[C@@H]21 [Compound 22] | 25 to 100 |
| CN1C(=O)C[C@@H]2CC3(CCN(C4CCCCC4)CC3)c3ccccc3[C@@H]21 [Compound 23] | 25 to 100 |
| CCOC(=O)N1CCC(N2CCC3(CC2)C[C@H]2CC(=O)N(CC(=O)O)[C@H]2c2ccccc23)CC1 [Compound 13] | 25 to 100 |

Same assay, conditions: CHO cells expressing M1, calcium mobilization

| SMILES | EC50 [µM] |
| --- | --- |
| COCCN1C(=O)C[C@@H]2CC3(CCN(CC4CCCCC4)CC3)c3ccccc3[C@@H]21 [Compound 22] | 2 to 5 |
| CN1C(=O)C[C@@H]2CC3(CCN(C4CCCCC4)CC3)c3ccccc3[C@@H]21 [Compound 23] | < 2 |
| CCOC(=O)N1CCC(N2CCC3(CC2)C[C@H]2CC(=O)N(CC(=O)O)[C@H]2c2ccccc23)CC1 [Compound 13] | > 5 |
